In ChEMBL document CHEMBL1177879, “Transition metal complexes of a new hexadentate macroacyclic N2O4-donor Schiff base: inhibitory activity against bacteria and fungi” (2010):

What was measured:
Details in all cases: read-out: IZ
Candida albicans = assay: Antifungal activity against Candida albicans at 50 ug after 48 hrs by agar well diffusion assay; format: functional
[1] = system: Bacillus cirroflagellosus; assay: Antibacterial activity against Bacillus cirroflagellosus at 50 ug after 48 hrs by agar well diffusion assay
Escherichia coli = assay: Antibacterial activity against Escherichia coli at 50 ug after 48 hrs by agar well diffusion assay; format: functional
Aspergillus niger = assay: Antifungal activity against Aspergillus niger at 50 ug after 48 hrs by agar well diffusion assay; format: functional

Row | SMILES | zone of inhibition at 50 µg/disc (Candida albicans) | zone of inhibition at 50 µg/disc [1] | zone of inhibition at 50 µg/disc (Escherichia coli) | zone of inhibition at 50 µg/disc (Aspergillus niger)
1 | O=NN(CC(=O)N/N=C\C=N\NC(=O)CN(N=O)c1ccccc1)c1ccccc1 | 19.3 mm | 16 mm | 16.3 mm | 16.7 mm
2 | COC1=CC(=O)C[C@@H](C)[C@]12Oc1c(Cl)c(OC)cc(OC)c1C2=O [GRISEOFULVIN] | 29.3 mm |  |  | 29 mm
3 | CCn1cc(C(=O)O)c(=O)c2cc(F)c(N3CCNCC3)cc21 [NORFLOXACIN] |  | 28.3 mm | 28.3 mm | 
